Consider one compound from article PMC12066977, “Alkyl Tail Variation on Chalcone‐Based Quaternary Pyridinium Salts as Rule‐of‐Thumb for Antimicrobial Activity” (Archiv Der Pharmazie, 2025).

This test relates to E. coli. As to the kind of experiment: Colistin association assay. The test is classed as cell-based, Escherichia coli. Conditions: colistin at sub-inhibitory concentration (MIC/8 = 0.027 µM), versus compound alone. How it is done:
This is a confirmation of the ability of these new QPySs to also affect Gram‐negative proliferation once they pass through the OM.
The dry powder of the chalcone‐based QPySs was resuspended in dimethylsulfoxide (DMSO) at 20 mM and used as stock solutions. For biological investigations, compounds were used in the range 100–0.78 µM, and the solvent in the corresponding percentage range. The following commercially available antimicrobials and toxic clinical drugs were purchased from Sigma‐Aldrich (St. Louis, MO, USA), dissolved in water, and used as reference controls. Gentamicin and ampicillin were used in the range 107.69–0.82 µM and 143.23–1.12 µM, respectively; the colistin was used at 0.03 µM in association with the chalcone‐based QASs with E. coli. The fluconazole was used in the assays with C. albicans in the range 3.27–0.03 µM. […]
In short, microbial inocula were prepared at 0.5 McFarland in PBS and, subsequently, bacterial suspensions were diluted 1:200 in Mueller–Hinton broth (Sigma‐Aldrich, St. Louis, MO, USA), while fungal inoculum was diluted 1:20 in RPMI‐1640 medium (Gibco®, ThermoFisher Scientific Inc., Waltham, MA, USA), containing glucose 2%, 0.3% levo‐glutamine buffered to pH 7.0 with 0.165 M 3‐(N‐morpholino) propanesulfonic acid (MOPS). […] The plate was incubated at 37°C for 24 h, and subsequently the optical density at 630 nm (OD630nm) was spectrophotometrically measured. […]

Molecules are shown by their SMILES.

Turning to `C#CCOc1ccc(C(=O)/C=C/c2ccc[n+](CCCCCCCCCCCCCC)c2)c(OCC#C)c1.[Br-]` [Compound 6, (E)‐3‐{3‐[2,4‐Bis(prop‐2‐yn‐1‐yloxy)phenyl]‐3‐oxoprop‐1‐en‐1‐yl}‐1‐tetradecylpyridin‐1‐ium bromide], the “MIC decrease for E. coli in association with colistin” value is given as “fourfold”.
